From patent publication US6645965B1, “Nitrate salts of antihypertensive medicines” (priority 1998, dated 2003)

Legend:
[1] = test system: muscular contraction produced by Angiotensin II (isolated ileum); test: Contraction of isolated guinea pig ileum produced by Angiotensin II; conditions: Angiotensin II 10 mcg/ml, compound 10^−6M, Carrier = 100
From the text: In the second experiment (contraction produced by Angiotensin II), the method described by P. C. Wong et al., Hypertension, 13, 489-497, 1989 has been followed.

[2] = test system: arterial hypertension induced by L-NAME; test: Arterial hypertension induced by L-NAME, systemic arterial pressure by caudal way; type: in vivo, rat; conditions: Carrier 170 ± 7
Experimental: The inhibiting effect of Losartan nitrate on the arterial hypertension has been assayed by using two experimental models: the arterial hypertension induced by L-NAME (see the preceding example) and the muscular contraction produced by Angiotensin II. In the first experiment Wistar adult male rats (235-284 g) received for 6 weeks drinking water containing L-NAME. at a 60-70 mg/100 ml concentration, equivalent to a daily dose of about 60 mg/Kg. […] One hour after the last treatment, the systemic arterial pressure was determined by caudal way, as described by Zatz, Lab. Anim. Sci., 42, 198, 1990. […] In the second experiment the method described by Taylor (see Example 10) has been followed as described before. The prostatic part of the isolated deferent duct of rats (200-220 g) was removed and dipped in a physiologic solution at 37° C. and then contracted by transmural stimulation (95% of the maximum stimulation, 0.2 Hz).

[3] = test system: ileal contraction caused by calcium chloride; test: Ileal contraction caused by calcium chloride (calcium antagonist activity); conditions: guinea pig ileum, calcium chloride 20 mcg/ml, compound 10^−6 M; Carrier = 100
Experimental: In the latter, the experimental model adapted was that of the ileal contraction caused by calcium chloride, according to the method described by M. J. Spedding, J. Pharmacology 83, 211-220, 1984. Ileus segments taken from guinea pig (300-350 g) were maintained at 37° C. in a physiologic solution not containing calcium ions and then stimulated by calcium chloride addition (final concentration 20 mcg/ml). The calcium antagonist activity was determined as the reduction of the ileal contraction following addition of each of the test compounds at a concentration 10^−6 M.

[4] = test system: bronchoconstriction induced in guinea pigs by the Capsaicin injection; test: Experimental bronchoconstriction induced by Capsaicin injection (tidal air variation, Konzett apparatus); type: in vivo, guinea pig
Experimental: The compounds at a dose of 10 mg/kg and the corresponding carrier have been administered to the guinea pigs (groups of 6 animals each) by intraperitoneal route for three consecutive days. The animals were prepared according to the method of Del Soldato et al. J. Pharmacol. Methods 5 279 1981. 45 minutes later 0.1 ml of a Capsaicin saline solution (1 μg/Kg) was injected to the animals intravenously. The tidal air variation before and after the Capsaicin administration was measured by a Konzett apparatus, modified as described in the above mentioned reference, connected to a polygraphic system. The effects of the compounds and of their corresponding nitrate salts on the experimental bronchoconstriction induced in guinea pigs by the Capsaicin injection are reported in Table 1.

[5] = test system: left atrium specimens stimulated by Isoprenaline; test: Inotropic-positive effect caused by Isoprenaline in guinea pig left atrium (beta-adrenolytic activity); conditions: Isoprenaline 10 mcg/ml, compound 10^−6M, Carrier = 100
Experimental: In the latter experiment the method described by Grodzinski et al., Arch. Int. Phramacodyn., 191, 133-141, 1971 was followed. The left atrium specimens taken from guinea pigs (300-350 g) were maintained at 32° C. in a physiologic solution wherein the concentration of calcium ion was ⅓ lower and stimulated by Isoprenaline (10 mcg/ml). The beta-adrenolitic activity is expressed as the reduction of the inotropic-positive effect (increase of the cardiac muscle contraction) following addition of the compound under examination at a 10^−6M concentration.

[6] = test system: isolated human cavernous tissue; test: Relaxation of isolated human cavernous tissue strips precontracted with adrenaline; conditions: 10^−6 M; adrenaline 3.10^−6 M
From the text: (§1) The relaxation effect of the cavernous artery and of the human cavernosum corpora (vasodilating effect at a peripheric level) was also studied. It was used the technique described by R. G. Hempelmann et al., European Journal of Pharmacology 276, 277-280 (1995), employing erectile tissues coming from patients submitted to surgical operation. The cavernous arteries have been isolated and cleaned up from the surrounding connective tissue. Segments of about 2 mm length were obtained and were mounted in a myograph equipment.
(§2) After having drawn an experimental curve diameter/tension, the specimens have been adjusted to a diameter corresponding to 90% of the one reached in the presence of a transluminal pressure of 100 mm Hg; after a stabilization period of about 60 minutes, contraction was effected by adrenaline 3.10^−6 M. After 15 minutes a dose corresponding to 10^−6 M of each of the tested compounds was added and the relaxation percentage was recorded.
A second series of experiments has been carried out according to the same protocol, on the isolated strips, 3×3×5 mm, of cavernous tissue, isometrically suspended in baths for isolated organs, under a 5-10 mN tension.

[7] = test system: isolated human cavernous artery; test: Relaxation of isolated human cavernous artery pre-contracted with adrenaline; conditions: 10^−6 M; adrenaline 3.10^−6 M
From the text: as §1, §2

[8] = test system: prostatic part of the deferent vessel contracted by transmural stimulation; test: Prostatic deferent vessel constriction induced by submaximum electric stimulation, rats treated with L-NAME; design: species or system rat; conditions: 10 mg/kg s.c. daily for five days, tested substance 10^−6 M, within 5 minutes, Carrier = 100
Experimental: The compounds have been administered in physiological solution. The control group has been treated with the carrier (physiologic solution) only. The vaso-relaxing activity of Sildenafil nitrate was determined by using the experimental model of the prostatic deferent vessels constriction, induced by submaximum electric stimulation (D. A. Taylor et al., J. Pharmacol. Exp. Ther. 224, 40-45 1983), in rats treated with N^w-nitro-L-arginine methyl ester (L-NAME) as described by Ribeiro et al., Hypertension, 20, 298, 1992. […] […] One hour after the last treatment,. the animals were sacrificed and the prostatic part of the deferent vessel was removed, dipped in a physiologic solution at 37° C., and contracted by transmural stimulation (95% of the maximum stimulation, 0.2 Hz). The reduction of the neurogenic contractive response, which results within 5 minutes from the addition of the tested substance at a concentration of 10^−6 M, is taken as a measure of the vasorelaxing activity.

[9] = test system: prostatic part of the isolated deferent duct contracted by transmural stimulation; test: Vascular contraction of isolated rat deferent duct induced by electric stimulation; conditions: compound 10^−6 M, within 5 minutes, Carrier = 100
From the text: The inhibiting effect of Minoxidil nitrate on the arterial hypertension has been determined by using two experimental models: the arterial hypertension induced by L-NAME (see Example 10) and the vascular contraction induced by electric stimulation. In the first pharmacological experiment the rats have been treated as described in the pharmacological experiment with L-NAME of Example 11. In the second experiment the method described by Taylor (see Example 10) has been followed as described before. The prostatic part of the isolated deferent duct of rats (200-220 g) was removed and dipped in a physiologic solution at 37° C. and then contracted by transmural stimulation (95% of the maximum stimulation, 0.2 Hz).
The vasorelaxing activity is expressed as the reduction of the contractive neurogenic response, determined within 5 minutes from the. addition of the tested compound at a 10^−6 M concentration.

gastric tissue = test: Gastric toxicity in rats given ethanol 50% by os (gastric lesions); type: in vivo; conditions: Sprague-Dawley male rats (n=10), 10 mg/Kg i.p. as free base, ethanol 50% by os 30 minutes later; Controls 50
Experimental: 5 groups of Sprague-Dawley male rats (n=10), were fasted for 24 hours. 4 groups were then respectively treated i.p. with Sildenafil, Zaprinast, and the relevant nitrate salts of said drugs. One group was not treated and was tha control group. 30 minutes later 1 ml of ethanol 50% in water was given by os to the animals.
One hour later the animals were sacrificed. The stomach was removed and the gastric tissue was macroscopically examined.
The results are reported in Table X. In the Table the gastric toxicity given as % incidence is the number of rats in a group showing gastric lesions.

[10] = Diuretic effect in rats (urine volume over 6 hours); type: in vivo, rat; conditions: 10 mg/Kg subcutaneously, urine volume over 6 hours as percentage of carrier group
Experimental: In the latter experiment the diuretic effect was studied according to the method described by W. L. Lipschwitz et al. J. Pharmacol. Exp. Ther., 79, 97-110, 1943. No 3 groups of 6 rats (200-220 g) each, stalled in metabolic cages received drinking distilled water (25 ml/Kg p.o.). Each group was then subcutaneously injected with Amiloride nitrate (10 mg/Kg), Amiloride (10 mg/Kg) or carrier respectively. The urine volume was collected during a period of 6 hours following drug administration, measured in ml. The diuretic effect is expressed as percentage of the collected urine volume calculated on that of the group treated with the carrier.

[11] = Table V, L-NAME rats, 10 mg/kg s.c. daily for five days, one hour after last treatment
[12] = Table VIII, L-NAME rats, model of Example 11
[13] = guinea pigs, 10 mg/kg intraperitoneal for three consecutive days, Capsaicin 1 μg/Kg i.v., Carrier = 100
[14] = Table VII, L-NAME rats, model of Example 11
[15] = Table VI, L-NAME rats treated as in Example 11

In the case of Losartan nitrate [Losartan.HNO3], the “Effect on the contraction of the smooth musculature % (n = 5)” value [1] is reported as 12% and the “Average arterial pressure (mm Hg)” value [2, 11] is reported as 115 ± 4 mm Hg.

With “Nicardipine Nitrate Salt [Nicardipine.HNO3]” the “Contracturing effect % (n = 5)” value [3] was 8% and the “Average arterial pressure (mm Hg)” value [2, 12] was 108 ± 3 mm Hg.

In the case of `CC(C)NCC(O)COc1cccc2ccccc12` (stereo not shown) [Propranolol, reference compound], the “Bronchoconstrictive effect (%)” value [4, 13] is reported as 280%.

With `CCCCc1nc(Cl)c(CO)n1Cc1ccc(-c2ccccc2-c2nn[nH]n2)cc1` [Losartan, reference compound] the “Effect on the contraction of the smooth musculature % (n = 5)” value [1] was 33% and the “Average arterial pressure (mm Hg)” value [2, 11] was 153 ± 5 mm Hg.

For `CC(C)(C)NC[C@H](O)COc1nsnc1N1CCOCC1` [Timolol, reference compound], the “Inotropic positive effect % (n = 5)” value [5] was 32%, the “Average arterial pressure (mm Hg)” value [2, 14] was 144 ± 5 mm Hg and the “Bronchoconstrictive effect (%)” value [4, 13] was 188%.

In the case of `[NH-]c1c[n+](N2CCOCC2)no1` [SIN-1], the “Relaxing effect on the isolated human cavernous tissue precontracted with adrenaline (n = 4) (relaxation %)” value (“Relaxing effect … (n = 4) (relaxation %)” for short) [6] is reported as 33 ± 4% and the “Relaxing effect on the isolated human cavernous artery pre-contracted with adrenaline (n = 5) (relaxation %)” value (shortened to “Relaxing effect … (n = 5) (relaxation %)”) [7] is reported as 36 ± 7%.

In the case of “Sildenafil Nitrate Salt [Sildenafil.HNO3]”, the “Relaxing effect … (n = 4) (relaxation %)” value [6] is reported as 68 ± 7%, the “Relaxing effect … (n = 5) (relaxation %)” value [7] is reported as 61 ± 3% and the “Effect on vasoconstriction (%)” value [8] is reported as 25%.

In the case of Minoxidil nitrate [Minoxidil.HNO3], the “Average arterial pressure (mm Hg)” value [2, 15] is reported as 110 ± 6 mm Hg and the “Effect on the vasoconstriction % (n = 5)” value [9] is reported as 5%.

In the case of Timolol nitrate salt [Timolol.HNO3], the “Inotropic positive effect % (n = 5)” value [5] is reported as 13%, the “Average arterial pressure (mm Hg)” value [2, 14] is reported as 108 ± 8 mm Hg and the “Bronchoconstrictive effect (%)” value ([4]; guinea pig, in vivo, 10 mg/kg) is reported as 94%.

For Zaprinast Nitrate [Zaprinast.HNO3], the “Gastric toxicity (% incidence)” value (gastric tissue) was 30 % incidence.

With `Nc1cc(N2CCCCC2)nc(N)[n+]1[O-]` [Minoxidil, 6-(1-piperidiny-1)-2,4-pyrimidinediamine 3-oxide, reference compound] the “Average arterial pressure (mm Hg)” value [2, 15] was 132 ± 6 mm Hg and the “Effect on the vasoconstriction % (n = 5)” value [9] was 18%.

In the case of Amiloride Nitrate Salt [Amiloride.HNO3], the “Diuretic effect % (n = 5)” value [10] is reported as 215% and the “Average arterial pressure (mm Hg)” value ([2]; Table IX, L-NAME rats, model of Example 11) is reported as 110 ± 5 mm Hg.

With `COC(=O)C1=C(C)NC(C)=C(C(=O)OCCN(C)Cc2ccccc2)C1c1cccc([N+](=O)[O-])c1` (stereo not shown) [Nicardipine, 1,4-dihydro-2,6-dimethyl-4-(3-nitrophenyl)-3,5-pyridinedicarboxylic acid methyl 2[methyl-(phenylmethyl)amino]ethyl ester, reference compound] the “Contracturing effect % (n = 5)” value [3] was 25% and the “Average arterial pressure (mm Hg)” value [2, 12] was 122 ± 6 mm Hg.

In the case of “Propranolol nitrate salt [Propranolol.HNO3]”, the “Bronchoconstrictive effect (%)” value [4, 13] is reported as 110%.

With `CCCc1nn(C)c2c(=O)[nH]c(-c3cc(S(=O)(=O)N4CCN(C)CC4)ccc3OCC)nc12` [Sildenafil] the “Relaxing effect … (n = 4) (relaxation %)” value [6] was 42 ± 6%, the “Relaxing effect … (n = 5) (relaxation %)” value [7] was 25 ± 4% and the “Effect on vasoconstriction (%)” value [8] was 68%.
